What follows are compounds tested against T1, mutant form of the human GPR119 receptor (Homo sapiens, UniProt Q8TDV5, S329A/T327A) (assay: LANCE cAMP-384 assay in HEK293 cells stably expressing a mutant form of the human GPR119 receptor). Conditions: cAMP accumulation, GPR119 stable HEK293 cells, LANCE kit, 20 min at 37° C.
T1 construct: expressed in transfected cells
T1 sequence (Q8TDV5 with tags, fused parts or gaps T327A/S329A): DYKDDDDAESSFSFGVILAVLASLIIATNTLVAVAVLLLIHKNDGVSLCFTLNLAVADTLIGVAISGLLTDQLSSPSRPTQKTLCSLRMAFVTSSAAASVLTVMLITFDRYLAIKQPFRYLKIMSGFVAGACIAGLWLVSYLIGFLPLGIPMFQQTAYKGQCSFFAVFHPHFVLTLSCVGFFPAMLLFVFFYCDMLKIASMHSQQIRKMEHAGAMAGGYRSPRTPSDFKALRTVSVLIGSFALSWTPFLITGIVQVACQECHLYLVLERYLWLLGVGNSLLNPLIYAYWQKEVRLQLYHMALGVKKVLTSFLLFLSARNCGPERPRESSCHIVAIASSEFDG
Type: cell-based
Description: Quantitative detection of cAMP accumulation from cells expressing human GPR119 receptor is achieved using Perkin Elmer's LANCE cAMP-384 Kit (Cat#AD0264) according to the manufacturer's protocol. Briefly, HEK293 cells stably expressing a mutant form of the human GPR119 receptor as assay tool (Methionine 1 replaced with the amino acid sequence […], and T327 & S329 changed to alanines; SEQ ID No. 1) are grown to 50-70% confluency in cell culture media (DMEM, 10% heat inactivated Fetal Bovine Serum, 50 I.U./mL penicillin, 50 μg/mL streptomycin, 10 mM HEPES, 20 μg/mL G418 Sulfate). On the day of the assay, GPR119 stable HEK293 cells are lifted from the tissue culture plate and 1000 cells/well are incubated along with various concentrations of test compounds for 20 min at 37° C. Detection Buffer (50 mM HEPES, 10 mM calcium chloride, 0.35% Triton X-100, 1 mg/mL BSA) containing cAMP-specific antibody is then added to all wells and allowed to equilibrate in the dark for 10 minutes at room temperature. Upon equilibration, Detection Buffer containing europium-labeled cAMP tracer complex is added to all wells and allowed to react for 1 hour at room temperature. After 1 hour, bound europium-labeled cAMP tracer is measured using a Perkin Elmer Envision plate reader. The quantity of cAMP generated in each well is derived from a standard curve. EC50 is determined using nonlinear regression analysis of the cAMP values over a range of agonist concentration (12 points spanning the range from 30 μM to 100 pM).

| SMILES | EC50 |
| --- | --- |
| O=C(c1cnc(-n2cncn2)nc1)N(C1CC1)[C@@H]1CCN(c2ncc(C(F)(F)F)cn2)C[C@@H]1F (single isomer, unassigned) [Example 102] | 0.05 µM |
| CCc1cnc(N2CC[C@@H](N(C(=O)c3cnc(-n4ccnc4C)cn3)C3CC3)[C@@H](F)C2)nc1 (single isomer, unassigned) [Example 90] | 0.044 µM |
| CCc1cnc(N2CCC(N(C(=O)c3cn(-c4ccc(C#N)cc4F)cn3)C3CC3)C(F)C2)nc1 (single isomer, unassigned) [Example 109] | 0.053 µM |
| Cc1ncnn1-c1ncc(C(=O)N(C2CC2)[C@@H]2CCN(c3ncc(Cl)cn3)C[C@@H]2F)cn1 (single isomer, unassigned) [Example 100] | 0.136 µM |
| Cc1nnnn1-c1ccc(C(=O)N(C2CC2)C2CCN(c3nc(C(C)C)no3)CC2)cn1 [Example 57] | 0.231 µM |
| CCc1cnc(N2CCC(N(C(=O)c3cnc(-n4cnc(C)n4)cn3)C3CC3)CC2)nc1 [Example 62] | 0.185 µM |
| Cc1ncn(-c2cnc(C(=O)N(C3CC3)C3CCN(c4ncc(C(F)(F)F)cc4F)CC3)cn2)n1 [Example 48] | 0.027 µM |
| CCc1cnc(N2CC[C@@H](N(C(=O)c3cn(-c4ccc(S(C)(=O)=O)cc4F)c(C)n3)C3CC3)[C@@H](F)C2)nc1 (single isomer, unassigned) [Example 111] | 1.61 µM |
| CCc1cnc(N2CC[C@@H](N(C(=O)c3cnc(-n4cnc(C)n4)cn3)C3CC3)[C@@H](F)C2)nc1 (single isomer, unassigned) [Example 89] | 0.018 µM |
| Cc1ncnn1-c1ncc(C(=O)N(C2CC2)C2CCN(c3ncc(C(F)(F)F)cc3F)CC2)cn1 [Example 50] | 0.148 µM |
| CCc1cnc(N2CC[C@@H](N(C(=O)c3cn(-c4ccc(S(C)(=O)=O)cc4F)cn3)C3CC3)[C@@H](F)C2)nc1 (single isomer, unassigned) [Example 108] | 0.082 µM |
| Cc1nccn1-c1cnc(C(=O)N(C2CC2)[C@@H]2CCN(c3ncc(Cl)cn3)C[C@@H]2F)cn1 (single isomer, unassigned) [Example 99] | 0.018 µM |
| CCc1cnc(N2CC[C@@H](N(C(=O)c3cnc(-n4cncn4)cn3)C3CC3)[C@@H](F)C2)nc1 (single isomer, unassigned) [Example 92] | 0.609 µM |
| Cc1nccn1-c1cnc(C(=O)N(C2CC2)C2CCN(c3ncc(Cl)cn3)CC2)cn1 [Example 65] | 0.333 µM |
| O=C(c1cnc(-n2cncn2)cn1)N(C1CC1)[C@@H]1CCN(c2ccc(C(F)(F)F)cn2)C[C@@H]1F (single isomer, unassigned) [Example 78] | 0.009 µM |
| Cc1nccn1-c1ncc(C(=O)N(C2CC2)C2CCN(c3ncc(Cl)cn3)CC2)cn1 [Example 67] | 0.045 µM |
| Cc1nccn1-c1ncc(C(=O)N(C2CC2)[C@@H]2CCN(c3ncc(Cl)cn3)C[C@@H]2F)cn1 (single isomer, unassigned) [Example 95] | 0.007 µM |
| CCc1cnc(N2CC[C@@H](N(C(=O)c3ccc(-n4ccnc4C)nc3)C3CC3)[C@@H](F)C2)nc1 (single isomer, unassigned) [Example 88] | 0.029 µM |
| CCc1cnc(N2CCC(N(C(=O)c3cnc(-n4cncn4)nc3)C3CC3)CC2)nc1 [Example 61] | 0.098 µM |
| CCc1cnc(N2CC[C@@H](N(C(=O)c3cnc(-n4ccnc4C)nc3)C3CC3)[C@@H](F)C2)nc1 (single isomer, unassigned) [Example 87] | 0.004 µM |
| Cc1nccn1-c1ncc(C(=O)N(C2CC2)[C@@H]2CCN(c3ncc(C(F)(F)F)cn3)C[C@@H]2F)cn1 (single isomer, unassigned) [Example 101] | 0.005 µM |
| CCc1cnc(N2CCC(N(C(=O)c3ccc(-n4ccnc4C)nc3)C3CC3)CC2)nc1 [Example 58] | 0.553 µM |
| Cc1ncn(-c2cnc(C(=O)N(C3CC3)[C@H]3CCN(c4ccc(C(F)(F)F)cn4)C[C@H]3F)cn2)n1 (single isomer, unassigned) [Example 74] | 0.411 µM |
| CC(C)c1noc(N2CCC(N(C(=O)c3cnc(-n4cncn4)cn3)C3CC3)CC2)n1 [Example 54] | 0.812 µM |
| Cc1ncnn1-c1ncc(C(=O)N(C2CC2)[C@@H]2CCN(c3ccc(C(F)(F)F)cn3)C[C@@H]2F)cn1 (single isomer, unassigned) [Example 103] | 0.391 µM |
| CCc1cnc(N2CCC(N(C(=O)c3cnc(-n4ccnc4C)cn3)C3CC3)CC2)nc1 [Example 59] | 1.24 µM |

| SMILES | EC50 |
| --- | --- |
| Cc1ncn(-c2cnc(C(=O)N(C3CC3)[C@@H]3CCN(c4ncc(Cl)cn4)C[C@@H]3F)cn2)n1 (single isomer, unassigned) [Example 98] | 0.014 µM |
| Cc1ncnn1-c1ccc(C(=O)N(C2CC2)C2CCN(c3ncc(Cl)cn3)CC2)cn1 [Example 64] | 0.252 µM |
| O=C(c1cnc(-n2cncn2)nc1)N(C1CC1)[C@@H]1CCN(c2ccc(C(F)(F)F)cn2)C[C@@H]1F (single isomer, unassigned) [Example 80] | 0.111 µM |
| Cc1nccn1-c1ccc(C(=O)N(C2CC2)[C@@H]2CCN(c3ncc(Cl)cn3)C[C@@H]2F)cn1 (single isomer, unassigned) [Example 97] | 0.032 µM |
| O=C(c1cnc(-n2cncn2)nc1)N(C1CC1)[C@@H]1CCN(c2ncc(Cl)cn2)C[C@@H]1F (single isomer, unassigned) [Example 96] | 0.065 µM |
| CCc1cnc(N2CCC(N(C(=O)c3cn(-c4ccc(S(C)(=O)=O)cc4F)cn3)C3CC3)CC2)nc1 [Example 105] | 0.233 µM |
| Cc1ncnn1-c1ccc(C(=O)N(C2CC2)[C@@H]2CCN(c3ccc(C(F)(F)F)cn3)C[C@@H]2F)cn1 (single isomer, unassigned) [Example 76] | 0.046 µM |
| CCc1cnc(N2CC[C@@H](N(C(=O)c3cnc(-n4cncn4)cn3)C3CC3)[C@@H](F)C2)nc1 (single isomer, unassigned) [Example 86] | 0.005 µM |
| CCc1cnc(N2CC[C@@H](N(C(=O)c3cn(-c4ccc(C#N)cn4)cn3)C3CC3)[C@@H](F)C2)nc1 (single isomer, unassigned) [Example 107] | 0.188 µM |
| CCc1cnc(N2CCC(N(C(=O)c3cn(-c4ccc(C#N)cc4F)cn3)C3CC3)CC2)nc1 [Example 106] | 0.057 µM |
| O=C(c1cnc(-n2cncn2)nc1)N(C1CC1)C1CCN(c2ncc(Cl)cn2)CC1 [Example 66] | 0.073 µM |
| Cc1nccn1-c1cnc(C(=O)N(C2CC2)[C@@H]2CCN(c3ccc(C(F)(F)F)cn3)C[C@@H]2F)cn1 (single isomer, unassigned) [Example 83] | 0.012 µM |
| Cc1nccn1-c1ncc(C(=O)N(C2CC2)C2CCN(c3nc(C(C)C)no3)CC2)cn1 [Example 55] | 0.512 µM |
| CCc1cnc(N2CC[C@@H](N(C(=O)c3ccc(-n4nnnc4C)nc3)C3CC3)[C@@H](F)C2)nc1 (single isomer, unassigned) [Example 85] | 0.02 µM |
| Cc1nccn1-c1ncc(C(=O)N(C2CC2)[C@H]2CCN(c3ccc(C(F)(F)F)cn3)C[C@H]2F)cn1 (single isomer, unassigned) [Example 72] | 0.056 µM |
| Cc1nnnn1-c1ccc(C(=O)N(C2CC2)[C@H]2CCN(c3ccc(C(F)(F)F)cn3)C[C@H]2F)cn1 (single isomer, unassigned) [Example 70] | 0.127 µM |
| Cc1ncnn1-c1ccc(C(=O)N(C2CC2)[C@@H]2CCN(c3ncc(Cl)cn3)C[C@@H]2F)cn1 (single isomer, unassigned) [Example 93] | 0.024 µM |
| O=C(c1cnc(-n2cncn2)cn1)N(C1CC1)C1CCN(c2ncc(C(F)(F)F)cc2F)CC1 [Example 46] | 0.078 µM |
| Cc1ncn(-c2cnc(C(=O)N(C3CC3)C3CCN(c4ncc(Cl)cn4)CC3)cn2)n1 [Example 68] | 0.125 µM |
| Cc1nccn1-c1cnc(C(=O)N(C2CC2)[C@H]2CCN(c3ccc(C(F)(F)F)cn3)C[C@H]2F)cn1 (single isomer, unassigned) [Example 75] | 0.341 µM |
| Cc1nccn1-c1ccc(C(=O)N(C2CC2)[C@H]2CCN(c3ccc(C(F)(F)F)cn3)C[C@H]2F)cn1 (single isomer, unassigned) [Example 73] | 0.391 µM |
| Cc1nccn1-c1ccc(C(=O)N(C2CC2)C2CCN(c3ncc(Cl)cn3)CC2)cn1 [Example 63] | 0.385 µM |
| Cc1ncnn1-c1ccc(C(=O)N(C2CC2)C2CCN(c3ncc(C(F)(F)F)cc3F)CC2)cn1 [Example 44] | 0.022 µM |
| Cc1nnnn1-c1ccc(C(=O)N(C2CC2)C2CCN(c3ncc(C(F)(F)F)cc3F)CC2)cn1 [Example 49] | 0.009 µM |
| Cc1nnnn1-c1ccc(C(=O)N(C2CC2)[C@@H]2CCN(c3ncc(Cl)cn3)C[C@@H]2F)cn1 (single isomer, unassigned) [Example 94] | 0.008 µM |
